Source: patent publication US11969497B2, “Method for producing an Entada seed extract enriched with metabolites of interest, extract produced by such a method, and cosmetic and dermocosmetic applications of such an extract” (EXSYMOL, priority 2018, dated 2024)

Key:
MMP-1 metalloproteinase = assay: MMP-1 secretion by primary human fibroblasts (NHDF) exposed to blue light, ELISA (test 6); assay type: cell-based; conditions: 5 mM; blue light 30 J/cm^2; non-irradiated 100, irradiated control 214
Procedure: Primary human fibroblasts (“NHDF”) were isolated from a mammoplasty from a patient. The NHDFs were cultured in DMEM medium supplemented with 4.5 g/l of glucose and 10% of FCS. They were maintained in an atmosphere at 37° C. and 10% CO2. On D-3, the fibroblasts were inoculated in 24-well plates at a rate of 15,000 cells/cm^2. On D-1, the NHDFs were incubated at 37° C. and 10% CO2 for 24 h with the extract of Entada seeds according to the invention. […] After irradiation, the cells were reincubated at 37° C. and 10% CO2 for an additional 24 h and the culture supernatants were harvested in order to perform an ELISA assay of the MMP-1 metalloproteinase (Abcam kit, ab100603). The results obtained were normalized with respect to the quantity of cells per condition and subjected to statistical analysis in triplicate.

[1] = ABTS antioxidant test (test 2a); conditions: absorbance 734 nm after 6 minutes
Procedure: (§1) This solution was then was diluted in water to obtain, under the test conditions, an absorbance of 0.5 at 734 nm. In each well of a 96-well microplate, were placed 100 μL of a solution of the extract according to the invention to be evaluated and 150 μL of oxidized ABTS solution. After 6 minutes, the absorbance was measured at 734 nm.

[2] = DPPH antioxidant test (test 2b); conditions: absorbance 517 nm after 30 minutes
Procedure: as §1
Experimentally by the DPPH test in each well of a 96 well micro plate, were placed 100 μL of a solution of the active to be evaluated and 100 μL of an ethanol solution of 1,1-diphenyl-2-picrylhydrazyle (DPPH-Aldrich D913-2) at 200 μM. After 30 minutes, the absorbance was measured at 517 nm.

[3] = Photo-induced isomerization of trans-urocanic acid under UV-B (test 1a/1b), HPLC assay; conditions: test 1b
Procedure: Two series of experiments were performed, the first with a fixed dose UV-B radiation of 300 mJ/cm^2 (test 1a), the second with a varying dose of UV-B radiation (test 1b) and using as a control a synthetic replica of entadamide A, namely the compound “(E)-N-(2-hydroxyethyl)-3-[…]” which is the subject of patent application EP 3103436.
Experimentally, the test was carried out in a 0.01 M citrate buffer of pH 5.5, the slightly acidic pH being more in relation to the acidity of the superficial skin layers in which the trans-urocanic acid marker is located. Thus, the solutions to be irradiated (20 mL), namely the control with or without the extract according to the invention, were placed in glass Petri dishes, uncovered, then subjected at room temperature to UV-B irradiation using a UV-B oven (LabOSI®). Aliquots (500 μL) were then sampled in HPLC vials to be immediately stored protected from light and at low temperature (+4/+8° C.), prior to analysis by HPLC assay. Chromatographic profiles were thus obtained, and the residual amount of trans-urocanic acid was determined.
Experimentally concerning test 1b, the study was carried out in an almost identical manner to test 1a above, with first checking that under the experimental conditions defined, trans-urocanic acid generated a significant amount of cis-urocanic acid which can be measured by HPLC analysis. […]

EC50 [1] [µM]	EC50 [2] [µM]	Structure (SMILES)	% of MMP-1 secreted (MMP-1 metalloproteinase) [%]	contribution of non-hydrolyzed phaseoloidin in the photoprotective activity of the extract against UV-B radiation [3] [%]
–	–	CC(=O)N[C@@H](CS)C(=O)O [N-acetyl-L-cysteine (NAC), N-acetyl-L-cysteine]	61	–
24	25	O=C1O[C@H]([C@@H](O)CO)C(O)=C1O [ascorbic acid]	–	–
8.3	540	O=C(O)Cc1cc(O)ccc1O[C@@H]1O[C@H](CO)[C@@H](O)[C@H](O)[C@H]1O [phaseoloidin, 2-O-β-D-glucopyranoside derivative of homogentisic acid]	–	> 25
